The target in test [1] is T1, human cannabinoid receptor type 1 (Homo sapiens, UniProt P21554).
T1 construct: purchased Perkin Elmer RBHCB1M; host or cells: HEK 293 EBNA cells
The test can be described thus: Human CB1 Radioligand Binding Assay (basis of selectivity, CB2 vs. CB1). Conditions: CB1: HEK 293 EBNA cells expressing human CB1; CB2: CHO CB2 membranes. As for the experimental part: 2. Human CB1 Radioligand Binding Assay
The incubation buffer was composed of 50 mM Tris-HCl pH 7.4, 2.5 mM EDTA, 5 mM MgCl2, 5.0 mg/ml fatty acid free BSA and the wash buffer was composed of 50 mM Tris-HCl pH 7.4, 2.5 mM EDTA, 5 mM MgCl2, 0.5 mg/ml fatty acid free BSA.

Test [2] has as its target T2, human cannabinoid receptor type 2 (Homo sapiens, UniProt P34972).
T2 construct: expressed in transfected cells; membrane preparation
The test can be described thus: Human CB2 Radioligand Binding Assay. Conditions: competition with [3H] CP-55,940; membranes from stably transfected CHO CB2 cells; read-out: CB2 Ligand Binding Asssay EC50. In outline:
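Test compounds (10 uM final, or dose-response) competed with [3H]CP-55,940, used at the Kd determined per membrane lot, for binding to stable human CB2-CHO membranes over 90 min at 30° C in pH 7.4 Tris/EGTA/MgCl2/BSA buffer. GF/C filtration then scintillation counting; 100 nM CP-55,940 defined 100% efficacy.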

pEC50: −log10 of the molar value. Some results are limits rather than exact numbers.

T1 sequence (P21554 whole entry): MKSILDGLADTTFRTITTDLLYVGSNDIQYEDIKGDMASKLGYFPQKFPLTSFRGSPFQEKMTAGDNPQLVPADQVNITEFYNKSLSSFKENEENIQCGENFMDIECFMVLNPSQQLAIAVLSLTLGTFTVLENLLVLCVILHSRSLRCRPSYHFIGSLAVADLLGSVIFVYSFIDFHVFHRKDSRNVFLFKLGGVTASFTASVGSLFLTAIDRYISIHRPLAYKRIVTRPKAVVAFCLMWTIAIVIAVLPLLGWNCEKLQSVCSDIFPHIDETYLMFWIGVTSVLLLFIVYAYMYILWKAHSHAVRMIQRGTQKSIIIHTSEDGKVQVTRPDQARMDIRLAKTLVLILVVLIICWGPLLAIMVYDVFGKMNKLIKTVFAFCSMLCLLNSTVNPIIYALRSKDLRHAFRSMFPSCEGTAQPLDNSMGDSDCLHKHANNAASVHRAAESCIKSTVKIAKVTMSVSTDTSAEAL
T2 sequence (P34972 whole entry): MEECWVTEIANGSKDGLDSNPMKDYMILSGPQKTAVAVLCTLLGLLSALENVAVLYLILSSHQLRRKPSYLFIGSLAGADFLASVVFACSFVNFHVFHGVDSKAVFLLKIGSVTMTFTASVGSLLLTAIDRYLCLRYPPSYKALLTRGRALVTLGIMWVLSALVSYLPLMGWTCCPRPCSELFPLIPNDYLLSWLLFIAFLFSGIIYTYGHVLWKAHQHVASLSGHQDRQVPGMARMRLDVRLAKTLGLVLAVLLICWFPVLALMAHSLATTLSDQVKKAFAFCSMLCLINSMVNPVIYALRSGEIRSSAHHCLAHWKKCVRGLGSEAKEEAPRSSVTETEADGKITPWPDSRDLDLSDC

Take `Cc1ccccc1Cc1nc(N2CCN(C)CC2)c2ccccc2n1` [Example 337, 2-(2-Methylbenzyl)-4-(4-methylpiperazin-1-yl)quinazoline]: the “Selectivity, CB2 vs. CB1” value in test [1] is listed as “− (− indicates ≦ 10−fold)”. In test [2], the pEC50 (usually the EC50 on a negative log10 scale, so that one unit is a factor of ten) was over 6.00.

Turning to `CC(=O)N1CCN(c2nc(-c3ccc(F)c(F)c3)nc3ccccc23)CC1` [Example 19, 1-(4-(2-(3,4-Difluorophenyl)quinazolin-4-yl)piperazin-1-yl)ethanone], in test [1], the “Selectivity, CB2 vs. CB1” value is on record as “+ (+ indicates > 10−fold)”. In addition, the pEC50 in test [2] is over 6.00.

As for `Cc1ccccc1Nc1nc(-c2ccccc2Cl)nc2ccccc12` [Example 331, 2-(2-Chlorophenyl)-N-o-tolylquinazolin-4-amine], the “Selectivity, CB2 vs. CB1” value in test [1] is “− (− indicates ≦ 10−fold)”. The pEC50 in test [2] was under 6.00.

In the case of `CC(C)(C)c1ccc2c(N3CCCC3)nc(Nc3ccc(F)c(F)c3)nc2c1` [Example 289, 7-tert-Butyl-N-(3,4-difluorophenyl)-4-(pyrrolidin-1-yl)quinazolin-2-amine], the “Selectivity, CB2 vs. CB1” value in test [1] is recorded as “− (− indicates ≦ 10−fold)”. In addition, the negative logarithm of the EC50 (pEC50) in test [2] is over 6.00.

With `CCC(=O)N1CCN(c2nc(-c3ccccc3Cl)nc3cccc(Cl)c23)CC1` [Example 260, 1-(4-(5-Chloro-2-(2-chlorophenyl)quinazolin-4-yl)piperazin-1-yl)propan-1-one], in test [1], the “Selectivity, CB2 vs. CB1” value was “+ (+ indicates > 10−fold)”. Further, the negative-log EC50 (pEC50) in test [2] was over 6.00.

`COc1ccc2nc(-c3ccc(C(C)(C)C)cc3)nc(N3CCN(C(C)=O)CC3)c2c1` [Example 249, 1-(4-(2-(4-tert-Butylphenyl)-6-methoxyquinazolin-4-yl)piperazin-1-yl)ethanone]: the “Selectivity, CB2 vs. CB1” value in test [1] is “+ (+ indicates > 10−fold)”. The negative logarithm of the EC50 (pEC50) in test [2] is over 6.00.

`COC(=O)N1CCN(c2nc(-c3ccccc3Cl)nc3cccc(Cl)c23)CC1` [Example 261, Methyl 4-(5-chloro-2-(2-chlorophenyl)quinazolin-4-yl)piperazine-1-carboxylate]: the “Selectivity, CB2 vs. CB1” value in test [1] is reported as “+ (+ indicates > 10−fold)”. Moreover, the pEC50 in test [2] is over 6.00.

As to `CC1CCCCN1c1nc(-c2ccccc2Cl)nc2ccccc12` (centres unmarked) [Example 59, 2-(2-Chlorophenyl)-4-(2-methylpiperidin-1-yl)quinazoline], in test [1], the “Selectivity, CB2 vs. CB1” value is “− (− indicates ≦ 10−fold)”. Also, the pEC50 in test [2] was over 6.00.

`Cc1cccc2nc(-c3ccccc3Cl)nc(N3CCCC3)c12` [Example 256, 2-(2-Chlorophenyl)-5-methyl-4-(pyrrolidin-1-yl)quinazoline]: in test [1], the “Selectivity, CB2 vs. CB1” value is reported as “+ (+ indicates > 10−fold)”. In test [2], the pEC50 was over 6.00.

As for `CC(=O)N1CCN(c2nc(-c3ccccc3Cl)nc3cc(C(=O)N4CCCCC4)ccc23)CC1` [Example 324, 1-(4-(2-(2-Chlorophenyl)-7-(piperidine-1-carbonyl)quinazolin-4-yl)piperazin-1-yl)ethanone], the “Selectivity, CB2 vs. CB1” value in test [1] is listed as “− (− indicates ≦ 10−fold)”. For the same molecule, the pEC50 in test [2] was under 6.00.

Take `CC(C)(C)c1ccc2c(N3CCCC3)nc(Nc3ccccc3)nc2c1` [Example 287, 7-tert-Butyl-N-phenyl-4-(pyrrolidin-1-yl)quinazolin-2-amine]: in test [1], the “Selectivity, CB2 vs. CB1” value is reported as “+ (+ indicates > 10−fold)”. In addition, the negative logarithm of the EC50 (pEC50) in test [2] was over 6.00.

For the molecule `CCOC(=O)N1CCN(c2nc(-c3ccccc3Cl)nc3ccc([N+](=O)[O-])cc23)CC1` [Example 343, Ethyl 4-(2-(2-chlorophenyl)-6-nitroquinazolin-4-yl)piperazine-1-carboxylate], the “Selectivity, CB2 vs. CB1” value in test [1] is “− (− indicates ≦ 10−fold)”. Moreover, in test [2], the pEC50 is under 6.00.

As for `CCCc1nc(N2CCCC2)c2ccccc2n1` [Example 40, 2-Propyl-4-(pyrrolidin-1-yl)quinazoline], the “Selectivity, CB2 vs. CB1” value in test [1] is “− (− indicates ≦ 10−fold)”. Further, the pEC50 in test [2] was under 6.00.

In the case of `CCOC(=O)N1CCN(c2nc(-c3ccccc3Cl)nc3cccc(C(F)(F)F)c23)CC1` [Example 241, Ethyl 4-(2-(2-chlorophenyl)-5-(trifluoromethyl)quinazolin-4-yl)piperazine-1-carboxylate], the “Selectivity, CB2 vs. CB1” value in test [1] was “+ (+ indicates > 10−fold)”. In addition, in test [2], the pEC50 is over 6.00.

As to `Clc1ccccc1-c1nc(N2CCSCC2)c2ccccc2n1` [Example 68, 2-(2-Chlorophenyl)-4-thiomorpholin-4-ylquinazoline], the “Selectivity, CB2 vs. CB1” value in test [1] is “− (− indicates ≦ 10−fold)”. Also, the negative logarithm of the EC50 (pEC50) in test [2] is over 6.00.

On to `CCOC(=O)N1CCN(c2nc(-c3ccccc3F)nc3ccc(Cl)cc23)CC1` [Example 272, Ethyl 4-(6-chloro-2-(2-fluorophenyl)quinazolin-4-yl)piperazine-1-carboxylate], for which the “Selectivity, CB2 vs. CB1” value in test [1] was “− (− indicates ≦ 10−fold)”. Further, the pEC50 in test [2] was under 6.00.

Take `c1ccc(-c2nc(NCC3CC3)c3ccccc3n2)cc1` [Example 50, N-(Cyclopropylmethyl)-2-phenylquinazolin-4-amine]: the “Selectivity, CB2 vs. CB1” value in test [1] is “− (− indicates ≦ 10−fold)”. Further, the pEC50 in test [2] is under 6.00.

As to `Clc1ccc(-c2nc(N3CCCC3)c3ccccc3n2)c(Cl)c1` [Example 28, 2-(2,4-Dichlorophenyl)-4-pyrrolidin-1-ylquinazoline], in test [1], the “Selectivity, CB2 vs. CB1” value is “+ (+ indicates > 10−fold)”. In addition, the pEC50 in test [2] is under 6.00.

For the molecule `COC(=O)c1ccc2nc(-c3ccccc3Cl)nc(Nc3cc(OC)cc(OC)c3)c2c1` [Example 328, Methyl 2-(2-chlorophenyl)-4-(3,5-dimethoxyphenylamino)quinazoline-6-carboxylate], in test [1], the “Selectivity, CB2 vs. CB1” value is listed as “− (− indicates ≦ 10−fold)”. Besides, the pEC50 in test [2] is under 6.00.

`CCCS(=O)(=O)N1CCN(c2nc(-c3ccccc3Cl)nc3cccc(Cl)c23)CC1` [Example 285, 5-Chloro-2-(2-chlorophenyl)-4-(4-(propylsulfonyl)piperazin-1-yl)quinazoline]: the “Selectivity, CB2 vs. CB1” value in test [1] is on record as “− (− indicates ≦ 10−fold)”. Moreover, the negative-log EC50 (pEC50) in test [2] is under 6.00.

With `Fc1ccccc1-c1nc(N2CCCC2)c2ccccc2n1` [Example 151, 2-(2-Fluorophenyl)-4-pyrrolidin-1-ylquinazoline], the “Selectivity, CB2 vs. CB1” value in test [1] is recorded as “− (− indicates ≦ 10−fold)”. Also, the pEC50 in test [2] is over 6.00.

`CN1CCN(c2nc(C3CCCC3)nc3ccccc23)CC1` [Example 138, 2-Cyclopentyl-4-(4-methylpiperazin-1-yl)quinazoline]: the “Selectivity, CB2 vs. CB1” value in test [1] was “+ (+ indicates > 10−fold)”. The negative logarithm of the EC50 (pEC50) in test [2] is over 6.00.

On to `FC(F)(F)Oc1ccc2nc(-c3ccc(Cl)cc3)nc(N3CCSCC3)c2c1` [Example 224, 4-(2-(4-Chlorophenyl)-6-(trifluoromethoxy)quinazolin-4-yl)thiomorpholine], for which the “Selectivity, CB2 vs. CB1” value in test [1] is given as “− (− indicates ≦ 10−fold)”. Moreover, the negative-log EC50 (pEC50) in test [2] is under 6.00.

As for `CCOC(=O)N1CCN(c2nc(-c3ccc(C(C)(C)C)cc3)nc3ccc(OC)cc23)CC1` [Example 250, Ethyl 4-(2-(4-tert-butylphenyl)-6-methoxyquinazolin-4-yl)piperazine-1-carboxylate], the “Selectivity, CB2 vs. CB1” value in test [1] is reported as “+ (+ indicates > 10−fold)”. Besides, the pEC50 in test [2] is over 6.00.

For the molecule `O=C(N1CCN(c2nc(-c3ccccc3Cl)nc3ccccc23)CC1)C(F)(F)F` [Example 103, 1-(4-(2-(2-Chlorophenyl)quinazolin-4-yl)piperazin-1-yl)-2,2,2-trifluoroethanone], in test [1], the “Selectivity, CB2 vs. CB1” value is “− (− indicates ≦ 10−fold)”. Further, the pEC50 in test [2] is over 6.00.

As to `COc1ccc2nc(-c3ccccc3Cl)nc(N3CCCC3)c2c1` [Example 179, 2-(2-Chlorophenyl)-6-methoxy-4-(pyrrolidin-1-yl)quinazoline], the “Selectivity, CB2 vs. CB1” value in test [1] is listed as “+ (+ indicates > 10−fold)”. Besides, in test [2], the negative logarithm of the EC50 (pEC50) is over 6.00.

Turning to `CCOC(=O)N1CCN(c2nc(-c3ccccc3Cl)nc3cc(C(=O)NC)ccc23)CC1` [Example 321, Ethyl 4-(2-(2-chlorophenyl)-7-(methylcarbamoyl)quinazolin-4-yl)piperazine-1-carboxylate], the “Selectivity, CB2 vs. CB1” value in test [1] is recorded as “− (− indicates ≦ 10−fold)”. Besides, the negative logarithm of the EC50 (pEC50) in test [2] is under 6.00.

With `CCOC(=O)N1CCN(c2nc(-c3ccccc3F)nc3ccc(OC)cc23)CC1` [Example 275, Ethyl 4-(2-(2-fluorophenyl)-6-methoxyquinazolin-4-yl)piperazine-1-carboxylate], the “Selectivity, CB2 vs. CB1” value in test [1] is “+ (+ indicates > 10−fold)”. Further, the pEC50 in test [2] is under 6.00.

Regarding `COc1ccc(Cc2nc(N3CCCCC3)c3ccccc3n2)cc1OC` [Example 335, 2-(3,4-Dimethoxybenzyl)-4-(piperidin-1-yl)quinazoline], the “Selectivity, CB2 vs. CB1” value in test [1] is “− (− indicates ≦ 10−fold)”. The negative-log EC50 (pEC50) in test [2] was under 6.00.

As to `CC(C)(C)c1ccc(-c2nc(Nc3ccc(F)c(F)c3)c3ccccc3n2)cc1` [Example 117, 2-(4-tert-Butylphenyl)-N-(3,4-difluorophenyl)quinazolin-4-amine], the “Selectivity, CB2 vs. CB1” value in test [1] is reported as “− (− indicates ≦ 10−fold)”. Besides, the negative logarithm of the EC50 (pEC50) in test [2] is over 6.00.

For the molecule `CCOC(=O)N1CCN(c2nc(-c3ccccc3Cl)nc3ccc(C(=O)N(CC)CC)cc23)CC1` [Example 314, Ethyl 4-(2-(2-chlorophenyl)-6-(diethylcarbamoyl)quinazolin-4-yl)piperazine-1-carboxylate], the “Selectivity, CB2 vs. CB1” value in test [1] was “+ (+ indicates > 10−fold)”. The pEC50 in test [2] was under 6.00.

The values above are taken from US20090209536A1, “AMINOQUINAZOLINE CANNABINOID RECEPTOR MODULATORS FOR TREATMENT OF DISEASE” (KALYPSYS, INC., priority 2007, published 2009).
